Data reported in patent US20090136482A1, “DRUG TARGET PROTEIN AND TARGET GENE, AND SCREENING METHOD” (REVERSE PROTEOMICS RESEARCH INSTITUTE CO., LTD., priority 2005, published 2009).
One block for each compound: values may come before it.

Tests used:
FLJ10368-derived protein = target: T1, FLJ10368-derived protein (Homo sapiens, UniProt Q9NUX5); experiment: Biacore S51 surface plasmon resonance interaction analysis with FLJ10368-derived protein; assay type: binding
T1 construct: fused on or other part: N-terminal histidine tag and FLAG tag, with Gateway linker residues
T1 sequence (Q9NUX5 1-634): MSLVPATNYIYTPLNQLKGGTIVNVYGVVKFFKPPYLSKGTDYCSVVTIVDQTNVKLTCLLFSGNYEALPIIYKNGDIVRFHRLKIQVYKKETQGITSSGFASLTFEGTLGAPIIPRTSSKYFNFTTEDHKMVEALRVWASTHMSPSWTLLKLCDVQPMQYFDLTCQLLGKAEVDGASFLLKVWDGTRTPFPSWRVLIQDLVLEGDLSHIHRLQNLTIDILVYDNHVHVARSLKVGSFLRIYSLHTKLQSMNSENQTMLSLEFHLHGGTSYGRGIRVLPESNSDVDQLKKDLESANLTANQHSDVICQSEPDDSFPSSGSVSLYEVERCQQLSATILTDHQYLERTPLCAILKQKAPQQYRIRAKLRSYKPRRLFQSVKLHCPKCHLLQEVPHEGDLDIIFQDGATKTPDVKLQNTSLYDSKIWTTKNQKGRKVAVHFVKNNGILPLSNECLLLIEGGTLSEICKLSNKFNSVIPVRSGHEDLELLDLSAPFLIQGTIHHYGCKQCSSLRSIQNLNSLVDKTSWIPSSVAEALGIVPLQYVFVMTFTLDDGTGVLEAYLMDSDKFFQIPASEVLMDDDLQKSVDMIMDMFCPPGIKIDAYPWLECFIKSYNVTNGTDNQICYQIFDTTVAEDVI
Procedure: (§1) The obtained plasmids were subjected to phenol/chloroform treatment and the inactivation treatment of RNase according to the PROTEIOS (TOYOBO) protocol to give purified expression plasmids.
(§2) The surface of a CM5 sensor chip for S51 (commercially available from Biacore) was converted to NTA using 1 M EDC, 1.33 M NHS, and 16 mg/ml AB-NTA (pH 9.2) to give an NTA sensor chip for S51. […] The immobilization was performed by sequentially injecting 0.5 M NiCl2, 0.4 M EDC, […], a ligand (protein) solution, and 1 M ethanolamine (pH 8.5) into the passage system of Biacore S51. […] For the correction (solvent correction) of the effect of DMSO contained in the compound solutions and the running buffer, the same solutions as the running buffer containing 3.8 to 5.1% DMSO (8 points) were prepared to perform correction based on the measurement results of these solutions.

FLJ12514-derived protein = FLJ12514-derived protein (Homo sapiens, UniProt Q9H9A5); experiment: Biacore S51 surface plasmon resonance interaction analysis with FLJ12514-derived protein; assay type: binding; conditions: for interaction with the protein (dose-dependent binding amount, saturation at high doses): FLJ12514-derived protein, Biacore S51
Procedure: as §1, §2

FLJ12389-derived protein = target: T2, FLJ12389-derived protein (Homo sapiens, UniProt Q86V21); experiment: Biacore S51 surface plasmon resonance interaction analysis with FLJ12389-derived protein; assay type: binding
T2 sequence (Q86V21 1-672): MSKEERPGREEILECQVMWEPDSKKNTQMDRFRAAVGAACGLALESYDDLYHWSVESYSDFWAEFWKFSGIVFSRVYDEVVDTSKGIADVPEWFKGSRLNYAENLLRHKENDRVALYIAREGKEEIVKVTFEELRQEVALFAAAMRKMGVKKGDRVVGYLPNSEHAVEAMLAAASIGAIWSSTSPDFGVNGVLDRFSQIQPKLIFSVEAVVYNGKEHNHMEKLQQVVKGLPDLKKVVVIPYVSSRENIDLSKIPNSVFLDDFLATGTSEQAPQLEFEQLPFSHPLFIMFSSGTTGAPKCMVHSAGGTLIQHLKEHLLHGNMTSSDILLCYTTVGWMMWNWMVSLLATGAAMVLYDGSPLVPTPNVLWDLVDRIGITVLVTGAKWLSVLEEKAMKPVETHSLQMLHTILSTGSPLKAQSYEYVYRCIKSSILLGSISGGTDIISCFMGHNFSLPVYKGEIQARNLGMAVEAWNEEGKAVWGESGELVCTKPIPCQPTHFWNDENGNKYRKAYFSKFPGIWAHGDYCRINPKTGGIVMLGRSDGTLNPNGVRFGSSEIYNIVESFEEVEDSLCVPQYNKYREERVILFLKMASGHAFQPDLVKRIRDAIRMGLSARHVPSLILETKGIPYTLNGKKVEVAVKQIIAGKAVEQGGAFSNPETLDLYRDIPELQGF
Procedure: as §1, §2

FLJ31146-derived protein = target: T3, FLJ31146-derived protein (Homo sapiens, UniProt Q9BSE4); experiment: Biacore S51 surface plasmon resonance interaction analysis with FLJ31146-derived protein; assay type: binding
T3 construct: fused on or other part: N-terminal histidine tag and FLAG tag, with Gateway linker residues
T3 sequence (Q9BSE4 1-406): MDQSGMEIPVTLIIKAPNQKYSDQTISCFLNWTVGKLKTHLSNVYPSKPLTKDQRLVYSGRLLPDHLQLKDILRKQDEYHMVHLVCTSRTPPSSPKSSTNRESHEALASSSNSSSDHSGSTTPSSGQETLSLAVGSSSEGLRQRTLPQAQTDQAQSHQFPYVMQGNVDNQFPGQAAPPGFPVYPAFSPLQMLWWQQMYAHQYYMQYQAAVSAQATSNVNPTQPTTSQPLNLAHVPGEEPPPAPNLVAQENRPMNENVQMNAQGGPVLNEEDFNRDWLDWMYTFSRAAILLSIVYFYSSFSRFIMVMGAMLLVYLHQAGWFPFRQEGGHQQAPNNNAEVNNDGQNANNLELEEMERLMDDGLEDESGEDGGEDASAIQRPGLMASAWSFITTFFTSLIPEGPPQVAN
Procedure: as §1, §2

FLJ14583-derived protein = target: T4, FLJ14583-derived protein (Homo sapiens, UniProt Q12816); experiment: Biacore S51 surface plasmon resonance interaction analysis with FLJ14583-derived protein; assay type: binding
T4 sequence (Q12816 1-1431): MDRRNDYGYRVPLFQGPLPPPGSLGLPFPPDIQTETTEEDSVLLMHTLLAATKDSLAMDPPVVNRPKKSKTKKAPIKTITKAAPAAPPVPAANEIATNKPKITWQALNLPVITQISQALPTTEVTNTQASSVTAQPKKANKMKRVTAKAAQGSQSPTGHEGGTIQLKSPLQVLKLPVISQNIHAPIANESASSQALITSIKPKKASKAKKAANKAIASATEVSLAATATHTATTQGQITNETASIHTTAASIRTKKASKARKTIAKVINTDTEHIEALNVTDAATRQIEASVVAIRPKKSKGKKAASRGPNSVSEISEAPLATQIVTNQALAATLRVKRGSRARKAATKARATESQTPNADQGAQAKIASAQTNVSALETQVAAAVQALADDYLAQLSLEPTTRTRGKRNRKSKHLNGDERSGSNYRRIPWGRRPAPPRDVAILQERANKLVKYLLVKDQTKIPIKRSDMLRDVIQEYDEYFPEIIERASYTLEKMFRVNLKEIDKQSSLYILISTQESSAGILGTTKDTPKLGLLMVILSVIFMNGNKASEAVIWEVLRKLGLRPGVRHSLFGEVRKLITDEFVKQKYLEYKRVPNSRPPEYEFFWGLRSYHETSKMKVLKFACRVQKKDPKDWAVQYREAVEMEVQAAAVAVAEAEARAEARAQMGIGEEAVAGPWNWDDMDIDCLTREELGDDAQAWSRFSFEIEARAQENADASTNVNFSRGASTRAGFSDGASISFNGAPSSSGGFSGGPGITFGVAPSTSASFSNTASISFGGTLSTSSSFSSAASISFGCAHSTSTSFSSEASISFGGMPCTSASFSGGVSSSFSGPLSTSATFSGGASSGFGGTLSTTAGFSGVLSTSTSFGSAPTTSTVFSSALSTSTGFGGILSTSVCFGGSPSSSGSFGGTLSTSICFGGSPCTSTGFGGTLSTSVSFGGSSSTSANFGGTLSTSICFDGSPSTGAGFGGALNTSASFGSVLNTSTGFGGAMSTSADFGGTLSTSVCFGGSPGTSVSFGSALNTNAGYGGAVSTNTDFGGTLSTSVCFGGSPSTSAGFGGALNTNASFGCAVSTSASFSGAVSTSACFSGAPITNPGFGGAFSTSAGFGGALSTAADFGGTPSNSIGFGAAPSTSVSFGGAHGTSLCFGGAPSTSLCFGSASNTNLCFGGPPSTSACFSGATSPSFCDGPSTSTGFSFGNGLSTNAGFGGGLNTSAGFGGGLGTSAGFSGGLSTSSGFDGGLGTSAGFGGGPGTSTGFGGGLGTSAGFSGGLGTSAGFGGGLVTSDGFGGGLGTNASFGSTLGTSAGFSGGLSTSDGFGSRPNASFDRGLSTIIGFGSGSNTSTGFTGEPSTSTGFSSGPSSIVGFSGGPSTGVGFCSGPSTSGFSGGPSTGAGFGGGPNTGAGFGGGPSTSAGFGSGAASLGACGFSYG
Procedure: as §1, §2

FLJ12502-derived protein = target: T5, FLJ12502-derived protein (Homo sapiens, UniProt Q7Z3D6); experiment: Biacore S51 surface plasmon resonance interaction analysis with FLJ12502-derived protein
T5 sequence (Q7Z3D6 1-616 isoform Q7Z3D6-1): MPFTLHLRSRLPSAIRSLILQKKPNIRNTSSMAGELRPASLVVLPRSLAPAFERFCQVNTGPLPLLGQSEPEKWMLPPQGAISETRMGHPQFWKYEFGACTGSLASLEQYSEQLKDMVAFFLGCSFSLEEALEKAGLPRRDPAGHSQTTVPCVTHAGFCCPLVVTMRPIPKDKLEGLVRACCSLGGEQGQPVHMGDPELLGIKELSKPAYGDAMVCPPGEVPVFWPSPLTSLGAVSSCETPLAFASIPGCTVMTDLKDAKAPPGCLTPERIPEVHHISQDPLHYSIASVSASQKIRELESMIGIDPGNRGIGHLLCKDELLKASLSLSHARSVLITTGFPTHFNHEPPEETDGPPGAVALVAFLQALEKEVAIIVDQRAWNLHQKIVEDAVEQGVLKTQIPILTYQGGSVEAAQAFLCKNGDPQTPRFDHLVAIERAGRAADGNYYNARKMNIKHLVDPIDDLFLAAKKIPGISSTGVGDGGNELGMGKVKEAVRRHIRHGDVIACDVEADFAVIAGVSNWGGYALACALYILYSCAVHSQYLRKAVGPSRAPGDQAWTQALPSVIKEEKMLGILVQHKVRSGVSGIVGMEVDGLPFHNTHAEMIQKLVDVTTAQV

Sequence of FLJ12514-derived protein (Q9H9A5 whole entry): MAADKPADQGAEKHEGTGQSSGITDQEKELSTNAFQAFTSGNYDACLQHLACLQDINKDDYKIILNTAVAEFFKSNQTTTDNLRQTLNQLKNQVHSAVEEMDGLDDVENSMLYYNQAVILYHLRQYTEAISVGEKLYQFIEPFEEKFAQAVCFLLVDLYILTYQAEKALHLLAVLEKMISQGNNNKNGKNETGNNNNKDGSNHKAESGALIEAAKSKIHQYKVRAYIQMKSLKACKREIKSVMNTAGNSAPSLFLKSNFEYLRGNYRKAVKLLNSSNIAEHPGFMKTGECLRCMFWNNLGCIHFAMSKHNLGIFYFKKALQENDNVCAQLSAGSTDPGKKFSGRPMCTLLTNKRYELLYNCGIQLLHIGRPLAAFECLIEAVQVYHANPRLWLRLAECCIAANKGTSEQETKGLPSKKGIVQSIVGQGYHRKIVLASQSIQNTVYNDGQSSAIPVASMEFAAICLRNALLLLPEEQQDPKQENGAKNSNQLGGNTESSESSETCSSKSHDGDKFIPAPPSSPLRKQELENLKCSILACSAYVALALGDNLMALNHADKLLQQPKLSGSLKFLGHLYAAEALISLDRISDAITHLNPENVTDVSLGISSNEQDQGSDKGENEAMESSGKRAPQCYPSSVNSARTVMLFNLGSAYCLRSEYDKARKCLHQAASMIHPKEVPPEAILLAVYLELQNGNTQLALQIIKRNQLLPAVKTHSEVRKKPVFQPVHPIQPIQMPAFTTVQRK

interaction with the protein (dose-dependent binding amount, saturation at high doses) (FLJ10368-derived protein): specifically interact
SMILES: COC(=O)[C@H]1[C@H]2C[C@@H]3c4[nH]c5cc(OC)ccc5c4CCN3C[C@H]2C[C@@H](OC(=O)c2cc(OC)c(OC)c(OC)c2)[C@@H]1OC [reserpine]

interaction with the protein (dose-dependent binding amount, saturation at high doses) (FLJ10368-derived protein): specifically interact | interaction with the protein (dose-dependent binding amount, saturation at high doses) (FLJ12514-derived protein): specifically interact | interaction with the protein (dose-dependent binding amount, saturation at high doses) (FLJ12389-derived protein): specifically interact
SMILES: c1ccc2[nH]c(-c3cscn3)nc2c1 [thiabendazole]

SMILES: CC[C@@]1(O)C[C@H](O[C@H]2C[C@H](N(C)C)[C@H](O[C@H]3C[C@H](O)[C@H](O[C@H]4CCC(=O)[C@H](C)O4)[C@H](C)O3)[C@H](C)O2)c2c(cc3c(c2O)C(=O)c2c(O)cccc2C3=O)[C@H]1C(=O)OC [aclarubicin]
Kd (FLJ12514-derived protein): 6.11 µM | interaction with the protein (dose-dependent binding amount, saturation at high doses) (FLJ12514-derived protein): specifically interact

SMILES: CC1=C(C(=O)O)N2C(=O)[C@@H](NC(=O)[C@H](N)c3ccccc3)[C@H]2SC1 [cephalexin]
interaction with the protein (dose-dependent binding amount, saturation at high doses) (FLJ31146-derived protein): specifically interact | interaction with the protein (dose-dependent binding amount, saturation at high doses) (FLJ14583-derived protein): specifically interact | Kd (FLJ12502-derived protein): 5.98 µM | interaction with the protein (dose-dependent binding amount, saturation at high doses) (FLJ12502-derived protein; FLJ12502-derived protein, Biacore S51): specifically interact
